Patent US7598294B2, “3,4-methylenedioxy-substituted chalcones as therapeutic agents” (Spear Therapeutics Limited, priority 2001, dated 2009)
pIC50: −log10 of the molar value. Read-outs that look alike come from different tables or passages of the source.

Legend:
[1] = test system: TCDD-induced MCF-7 cells; assay: TCDD-induced MCF-7 cell line cytotoxicity assay (MTT); conditions: for Tumor Selectivity Differential Factor: IC50 MCF-7 cells / IC50 TCDD-induced MCF-7 cells, fold more toxic to "tumour" cells than to "normal" cells; for pIC50: read-out: Cytotoxicity TCDD-induced MCF-7 Cells IC50, 10 nM TCDD for 24 hours, then 96 hours with compound, MTT
Protocol: TCDD-Induced MCF-7 Cell Line Versus MCF-7 Cell Line Cytotoxicity Assay
1×10^3 cells were plated out in 100 μl medium per well of 96-well flat-bottomed plates (Fisher). […] The medium was then carefully aspirated and 100 μl fresh medium added. […] 50 μl MTT (Thiazol blue, Sigma) at 2 mg/ml in Dulbecco's phosphate buffered saline-A, was then added to each well for 3 hours: All medium was aspirated, then the formazan product generated by viable cells was solubilized with 150 μl DMSO. Plates were vortexed and the absorbance at 540 nm determined using a plate reader. […] All determinations were carried out in at least triplicate.

[2] = test system: MDA-468 (Breast Tumor); assay: MDA-468 tumour cell line cytotoxicity assay; conditions: for Tumor Selectivity Differential Factor: IC50 MCF-10A / IC50 MDA-468, fold more toxic to cancer cells than to normal cells
Protocol: MDA-468 Tumour Cell Line Versus MCF-10A Normal Cell Line Assay
This cell culture based assay is performed using the two cell lines MDA-468 and MCF-10A. The MDA-468 cell line is an advanced breast cancer cell line, whilst the MCF-10A cell line is a normal breast cell line.
The tumour selectivity differential factor(TSDF) is calculated by dividing the IC50 obtained from the MCF-10A data by the IC50 obtained from the MDA-468 data.

[3] = test system: MCF-10A (Normal Breast); assay: MCF-10A normal cell line cytotoxicity assay; assay type: cell-based, human; conditions: Homo sapiens, MCF-10A, read-out: IC50 against the normal cell line
[4] = MCF-7 cell line (non-induced) cytotoxicity assay (MTT); assay type: cell-based; conditions: human, MCF-7 breast tumour cells, non-induced (no TCDD), non-induced MCF-7 cells
[5] = test system: breast cancer MCF-7 cells; assay: Intrinsic activity of prodrug and hydroxylated metabolite in breast cancer MCF-7 cells; assay type: cell-based; conditions: Homo sapiens, MCF7; prodrug versus hydroxylated metabolite
[6] = test system: K562; conditions: antitumour activity; cited from earlier work
[7] = MCF-10A normal cell line cytotoxicity assay; assay type: cell-based, human; conditions: human, MCF-10A normal breast cells; without TCDD
[8] = read-out: Cytotoxicity MDA-468 (Breast Tumor) IC50, without TCDD

| Structure (SMILES) | Tumor Selectivity Differential Factor [1] | Tumor Selectivity Differential Factor [2] | IC50 at 96 h [4] | pIC50 [1] | also measured |
| --- | --- | --- | --- | --- | --- |
| COc1cc(C(=O)/C=C/c2ccc3c(c2)OCO3)cc(OC)c1OC [DMU-135, (E)-1-(3,4-Methylenedioxyphenyl)-3-(3,4,5-trimethoxyphenyl)prop-1-en-3-one] | 65 | 120 | 920 nM | – | melting point: 135 °C; pIC50 ([2]; read-out: IC50 against the advanced tumour cell line, MDA-468, FIG. 2): 7.70; pIC50 [3]: 5.64 |
| COc1ccc(C(=O)/C=C/c2ccc3c(c2)OCO3)c(OC)c1OC [DMU-419, (E)-1-(3,4-methylenedioxyphenyl)-3-(2,3,4-trimethoxyphenyl)prop-1-en-3-one] | 3 | – | 2800 nM | 6.08 | – |
| COc1ccc(/C=C/C(=O)c2cc(OC)cc(OC)c2)cc1 [(E)-1-(4-methoxyphenyl)-3-(3,5-dimethoxyphenyl)prop-1-en-3-one] | – | – | – | – | pIC50 [5]: 6.16 |
| COc1cc(OC)cc(C(=O)/C=C/c2ccc3c(c2)OCO3)c1 [DMU-403, (E)-1-(3,4-methylenedioxyphenyl)-3-(3,5-dimethoxyphenyl)prop-1-en-3-one] | 6 | – | 3500 nM | 6.24 | – |
| CC(=O)/C=C/c1ccc(O)cc1 [(E)-1-(4′-hydroxyphenyl)but-1-en-3-one] | – | – | – | – | pIC50 [6]: 4.22 |
| CN(Cc1cnc2nc(N)nc(N)c2n1)c1ccc(C(=O)N[C@@H](CCC(=O)O)C(=O)O)cc1 [Methotrexate, methotrexate] | – | 1.5 | – | – | pIC50 [2, 8]: 7.40; IC50 at 96 h [7]: 60 nM |
| CC/C(=C(\c1ccccc1)c1ccc(OCCN(C)C)cc1)c1ccccc1 [Tamoxifen, tamoxifen] | – | 1.6 | – | – | pIC50 [2, 8]: 5.40; IC50 at 96 h [7]: 6300 nM |
| COc1cccc2c1C(=O)c1c(O)c3c(c(O)c1C2=O)C[C@@](O)(C(=O)CO)C[C@@H]3O[C@H]1C[C@H](N)[C@H](O)[C@H](C)O1 [Doxorubicin, doxorubicin] | – | 0.1 | – | – | fold more toxic to normal cells than to cancer cells ([2]; MCF-10A versus MDA-468): 10 fold; pIC50 [2, 8]: 8.52; IC50 at 96 h [7]: 0.3 nM |
| COc1ccc(C(=O)/C=C/c2ccc3c(c2)OCO3)c(OC)c1 [DMU-407, (E)-1-(3,4-methylenedioxyphenyl)-3-(2,4-dimethoxyphenyl)prop-1-en-3-one] | 3 | – | 7000 nM | 5.57 | melting point: 137 °C |
| COc1cc(OC)cc(C(=O)/C=C/c2ccc(OC)c(O)c2)c1 [(E)-1-(3-Hydroxy-4-methoxyphenyl)-3-(3,5-dimethoxyphenyl) prop-1-en-3-one] | – | – | – | – | pIC50 [5]: 9.19 |
| COc1ccc(OC)c(C(=O)/C=C/c2ccc3c(c2)OCO3)c1 [DMU-423, (E)-1-(3,4-methylenedioxyphenyl)-3-(2,5-dimethoxyphenyl)prop-1-en-3-one] | 13 | – | 3500 nM | 6.59 | melting point: 101 °C |
